Assay results as given in ChEMBL document CHEMBL1128794, “Rational design of irreversible, pseudo-C2-symmetric hiv-1 protease inhibitors” (Bioorg Med Chem Lett, 1995).

How the values were obtained:
[1] = molecular target: Human immunodeficiency virus type 1 protease (Human immunodeficiency virus 1, UniProt Q72874); experiment: Compound was tested for the inhibition activity against HIV-1 protease
[2] = molecular target: Human immunodeficiency virus type 1 protease (Human immunodeficiency virus 1) (UniProt Q72874); experiment: Ratio of inactivation constant (Kina) and inhibition constant (Ki) was determined
SUP-T1 [3] = experiment: Tested for the inhibitory activity against HIV-1 in Sup T1 cell lines assessed by syncytium formation and reverse transcriptase assay; assay type: functional, cell-based; conditions: Homo sapiens
H9 [4] = experiment: Tested for the inhibitory activity against HIV-1 in H-9 cell lines assessed by syncytium formation and reverse transcriptase assay; assay type: functional, cell-based; conditions: Homo sapiens
[5] = molecular target: Human immunodeficiency virus type 1 protease (Human immunodeficiency virus 1) (UniProt Q72874); experiment: Rate of irreversible inactivation of HIV 1 protease by the compound was determined
SUP-T1 [6] = experiment: 50% Cytoxic value against HIV-1 in Sup T1 cell lines was evaluated; assay type: functional, Homo sapiens
H9 [7] = experiment: Tested for the inhibitory activity against HIV-1 in H-9 and Sup T1 cell lines assessed by syncytium formation and reverse transcriptase assay; assay type: functional, cell-based; conditions: Homo sapiens
H9 [8] = experiment: 50% Cytoxic value against HIV-1 in H-9 cell lines was evaluated; assay type: functional, Homo sapiens

Structure (SMILES)	Ki [1] [µM]	K inact/Ki [2] [M⁻¹ s⁻¹]	also measured
CC(C)[C@H](NC(=O)OCc1ccccc1)C(=O)N[C@@H](Cc1ccccc1)C1OC1[C@H](Cc1ccccc1)NC(=O)[C@@H](NC(=O)OCc1ccccc1)C(C)C (some centres undefined)	0.075	–	–
CC(C)[C@H](NC(=O)OCc1ccccc1)C(=O)N[C@@H](Cc1ccccc1)[C@H](O)[C@H](O)[C@H](Cc1ccccc1)NC(=O)[C@@H](NC(=O)OCc1ccccc1)C(C)C	< 0.001	–	–
CC(C)[C@H](NC(=O)OCc1cccnc1)C(=O)NC[C@@H]1O[C@@H]1[C@H](Cc1ccccc1)NC(=O)[C@H](NC(=O)OCc1cccnc1)C(C)C	0.07	23300	–
CC(C)(C)NC(=O)[C@@H]1C[C@@H]2CCCC[C@@H]2CN1C[C@@H](O)[C@H](Cc1ccccc1)NC(=O)[C@H](CC(N)=O)NC(=O)c1ccc2ccccc2n1 [SAQUINAVIR]	–	–	IC50 (SUP-T1 [3]): 0.02 µM; IC50 (H9 [4]): 0.02 µM
CC(C)[C@H](NC(=O)OCc1ccccc1)C(=O)NC(C)[C@@H]1O[C@@H]1[C@H](Cc1ccccc1)NC(=O)[C@H](NC(=O)OCc1ccccc1)C(C)C (some centres undefined)	0.004	667000	–
CC(C)[C@H](NC(=O)OCc1ccncc1)C(=O)NC[C@@H]1O[C@@H]1[C@H](Cc1ccccc1)NC(=O)[C@H](NC(=O)OCc1ccncc1)C(C)C	0.3	5670	–
CC(C)[C@H](NC(=O)OCc1ccccn1)C(=O)NC[C@@H]1O[C@@H]1[C@H](Cc1ccccc1)NC(=O)[C@H](NC(=O)OCc1ccccn1)C(C)C	0.011	383000	–
O=[N+]([O-])c1ccc(OCC2CO2)cc1 (centres undefined)	–	–	Kina [5]: 0.004 min⁻¹
CC(C)[C@H](NC(=O)OCc1ccccc1)C(=O)NC[C@@H]1O[C@@H]1[C@H](Cc1ccccc1)NC(=O)[C@H](NC(=O)OCc1ccccc1)C(C)C	0.0001	2.5e+06	CT50 (SUP-T1 [6]): >100 µM; IC50 (H9 [7]): 0.03 µM; IC50 (SUP-T1 [3]): 0.03 µM; CT50 (H9 [8]): >100 µM
CC(C)[C@H](NC(=O)N(C)Cc1ccccn1)C(=O)NC[C@@H]1O[C@@H]1[C@H](Cc1ccccc1)NC(=O)[C@H](NC(=O)N(C)Cc1ccccn1)C(C)C	0.016	367000	–
Cc1cn([C@H]2C[C@H](N=[N+]=[N-])[C@@H](CO)O2)c(=O)[nH]c1=O [ZIDOVUDINE]	–	–	IC50 (SUP-T1 [3]): 0.05 µM; IC50 (H9 [4]): 0.05 µM
CC(C)[C@H](NC(=O)N(C)Cc1ccccn1)C(=O)N[C@@H](Cc1ccccc1)[C@@H](O)[C@H](O)[C@H](Cc1ccccc1)NC(=O)[C@@H](NC(=O)N(C)Cc1ccccn1)C(C)C	< 0.001	–	–
